Data published in ChEMBL document CHEMBL5247611, “A bibliometric analysis of PROTAC from 2001 to 2021” (Eur J Med Chem, 2022).
Blank lines part the entries; values can stand above or below the molecule they belong to.

Legend:
[1] = test system: MM1.S; assay: Antiproliferative activity against human MM1.S cells incubated for 72 hrs by MTS assay; assay type: functional, cell-based
[2] = target: Protein cereblon/GTPase KRas (Homo sapiens, UniProt P01116+Q96SW2, G12C); assay: Protac activity at CRBN/KRAS G12C mutant in human NCI-H358 cells assessed as degradation of KRAS G12C mutant; assay type: cell-based
[3] = target: Androgen receptor (Homo sapiens) (UniProt P10275); assay: Binding affinity to androgen receptor (unknown origin) at 10 uM relative to control
Sequence of Androgen receptor (Homo sapiens) (P10275 whole entry): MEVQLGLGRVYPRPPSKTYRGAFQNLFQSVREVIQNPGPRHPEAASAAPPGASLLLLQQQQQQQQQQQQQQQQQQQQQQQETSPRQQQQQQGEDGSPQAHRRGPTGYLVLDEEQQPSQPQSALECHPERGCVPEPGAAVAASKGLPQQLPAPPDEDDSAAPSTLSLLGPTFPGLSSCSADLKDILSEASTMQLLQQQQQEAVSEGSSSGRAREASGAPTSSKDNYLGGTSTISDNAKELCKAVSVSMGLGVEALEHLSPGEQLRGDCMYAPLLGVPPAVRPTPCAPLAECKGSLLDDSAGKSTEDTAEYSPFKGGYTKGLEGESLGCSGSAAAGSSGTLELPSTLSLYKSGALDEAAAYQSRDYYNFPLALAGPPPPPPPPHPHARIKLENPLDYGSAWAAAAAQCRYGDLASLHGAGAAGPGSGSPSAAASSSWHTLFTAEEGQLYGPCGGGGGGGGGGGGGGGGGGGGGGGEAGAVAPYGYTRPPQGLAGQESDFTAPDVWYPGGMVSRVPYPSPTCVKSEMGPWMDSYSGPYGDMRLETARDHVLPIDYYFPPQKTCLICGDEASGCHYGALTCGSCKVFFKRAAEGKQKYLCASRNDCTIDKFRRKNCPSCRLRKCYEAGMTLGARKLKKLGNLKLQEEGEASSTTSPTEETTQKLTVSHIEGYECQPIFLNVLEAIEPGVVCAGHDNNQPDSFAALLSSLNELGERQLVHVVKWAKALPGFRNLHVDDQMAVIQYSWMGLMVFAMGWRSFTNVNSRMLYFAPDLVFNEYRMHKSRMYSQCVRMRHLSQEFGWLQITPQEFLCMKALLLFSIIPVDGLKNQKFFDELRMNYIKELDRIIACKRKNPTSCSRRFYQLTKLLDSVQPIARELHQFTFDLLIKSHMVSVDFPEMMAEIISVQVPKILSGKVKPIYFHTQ

[4] = test system: LNCaP; assay: Antiproliferative activity against human LNCaP cells; assay type: functional, cell-based
[5] = target: T1, von Hippel-Lindau disease tumor suppressor/GTPase KRas (Homo sapiens, UniProt P01116+P40337, G12C); assay: Protac activity at VHL/KRAS G12C mutant in human SW1573 cells assessed as degradation of KRAS G12C mutant incubated for 24 hrs by immunoblot assay; assay type: cell-based
T1 sequence (P01116 whole entry G12C, stated change not applied): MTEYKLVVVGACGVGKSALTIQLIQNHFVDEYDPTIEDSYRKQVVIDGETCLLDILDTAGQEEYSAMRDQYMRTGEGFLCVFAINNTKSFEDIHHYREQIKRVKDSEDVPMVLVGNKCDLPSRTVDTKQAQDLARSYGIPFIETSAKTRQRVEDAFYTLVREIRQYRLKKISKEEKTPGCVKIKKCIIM
T1 sequence (P40337 whole entry, stated change not applied): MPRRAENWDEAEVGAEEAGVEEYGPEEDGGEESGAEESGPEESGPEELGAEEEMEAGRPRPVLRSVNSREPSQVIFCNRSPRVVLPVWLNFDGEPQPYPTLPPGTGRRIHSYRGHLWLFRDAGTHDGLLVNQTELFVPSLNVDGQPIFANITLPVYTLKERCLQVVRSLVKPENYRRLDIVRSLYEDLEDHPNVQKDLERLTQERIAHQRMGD

[6] = target: T1, von Hippel-Lindau disease tumor suppressor/GTPase KRas; assay: Protac activity at VHL/KRAS G12C mutant in human NCI-H358 cells assessed as degradation of KRAS G12C mutant incubated for 24 hrs by immunoblot assay; assay type: cell-based
[7] = target: T1, von Hippel-Lindau disease tumor suppressor/GTPase KRas; assay: Protac activity at VHL/KRAS G12C mutant in human NCI-H2030 cells assessed as degradation of KRAS G12C mutant incubated for 24 hrs by immunoblot assay; assay type: cell-based
[8] = target: T1, von Hippel-Lindau disease tumor suppressor/GTPase KRas; assay: Protac activity at VHL/KRAS G12C mutant in human NCI-H23 cells assessed as degradation of KRAS G12C mutant incubated for 24 hrs by immunoblot assay; assay type: cell-based
[9] = target: T1, von Hippel-Lindau disease tumor suppressor/GTPase KRas; assay: Protac activity at VHL/KRAS G12C mutant in human MIA PaCa-2 cells assessed as degradation of KRAS G12C mutant incubated for 24 hrs by immunoblot assay; assay type: cell-based
[10] = target: Protein cereblon/Protein deacetylase HDAC6 (Homo sapiens, UniProt Q96SW2+Q9UBN7); assay: Protac activity at CRBN/HDAC6 in human MM1.S assessed as degradation of HDAC6 incubated for 6 hrs by ELISA; assay type: cell-based
[11] = target: von Hippel-Lindau disease tumor suppressor/Epidermal growth factor receptor (Homo sapiens, UniProt P00533+P40337); assay: Protac activity at VHL/wildtype EGFR in human OVCAR-8 cells assessed as degradation of wild type EGFR incubated for 24 hrs by immunoblot assay; assay type: cell-based
[12] = test system: BaF3; assay: Antiproliferative activity against mouse BaF3 cells harboring EGFR L858R/T790M mutant assessed as cell growth inhibition incubated for 72 hrs; assay type: functional, cell-based; details: BaF3, 72 h
[13] = test system: OVCAR-8; assay: Antiproliferative activity against human OVCAR-8 cells; assay type: functional, cell-based
[14] = test system: HeLa; assay: Antiproliferative activity against human HeLa cells; assay type: functional, cell-based
[15] = test system: T47D; assay: Antiproliferative activity against human T47D cells; assay type: functional, cell-based
[16] = target: T2, von Hippel-Lindau disease tumor suppressor/Bromodomain-containing protein 2 (Homo sapiens, UniProt P25440+P40337); assay: Protac activity at VHL/BRD2 in HEK293 cells assessed as degradation of BRD2 incubated for 4 hrs by Western blot analysis; assay type: cell-based
T2 sequence (P25440 whole entry): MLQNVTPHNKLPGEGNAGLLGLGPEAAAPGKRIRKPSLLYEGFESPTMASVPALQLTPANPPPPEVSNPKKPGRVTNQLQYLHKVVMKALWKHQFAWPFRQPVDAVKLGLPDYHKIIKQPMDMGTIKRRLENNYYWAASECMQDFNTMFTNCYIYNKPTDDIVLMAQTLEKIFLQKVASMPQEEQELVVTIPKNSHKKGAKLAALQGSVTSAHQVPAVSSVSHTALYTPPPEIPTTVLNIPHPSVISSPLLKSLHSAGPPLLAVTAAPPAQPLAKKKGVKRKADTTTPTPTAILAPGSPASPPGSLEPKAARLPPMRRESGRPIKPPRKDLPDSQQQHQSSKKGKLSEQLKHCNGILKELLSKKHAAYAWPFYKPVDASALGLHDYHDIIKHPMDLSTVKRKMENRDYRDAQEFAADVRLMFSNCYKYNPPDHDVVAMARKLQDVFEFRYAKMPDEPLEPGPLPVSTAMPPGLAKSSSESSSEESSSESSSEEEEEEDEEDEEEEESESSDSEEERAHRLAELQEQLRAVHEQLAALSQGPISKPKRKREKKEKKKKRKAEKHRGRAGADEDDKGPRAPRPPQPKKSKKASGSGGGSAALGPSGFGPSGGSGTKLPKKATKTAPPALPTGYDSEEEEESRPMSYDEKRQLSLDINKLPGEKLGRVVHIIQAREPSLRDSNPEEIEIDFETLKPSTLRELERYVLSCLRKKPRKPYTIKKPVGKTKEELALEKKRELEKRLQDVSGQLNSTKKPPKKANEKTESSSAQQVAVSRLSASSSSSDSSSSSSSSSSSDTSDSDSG
T2 sequence (P40337 whole entry): as the sequence (P40337 whole entry, stated change not applied) above

[17] = Cytotoxicity against HEK293 cells assessed as inhibition of cell growth; assay type: toxicity, cell-based; details: human
[18] = target: T3, von Hippel-Lindau disease tumor suppressor/Bromodomain-containing protein 3 (Homo sapiens, UniProt P40337+Q15059); assay: Protac activity at VHL/BRD3 in HEK293 cells assessed as degradation of BRD3 incubated for 4 hrs by Western blot analysis; assay type: cell-based
T3 sequence (Q15059 whole entry): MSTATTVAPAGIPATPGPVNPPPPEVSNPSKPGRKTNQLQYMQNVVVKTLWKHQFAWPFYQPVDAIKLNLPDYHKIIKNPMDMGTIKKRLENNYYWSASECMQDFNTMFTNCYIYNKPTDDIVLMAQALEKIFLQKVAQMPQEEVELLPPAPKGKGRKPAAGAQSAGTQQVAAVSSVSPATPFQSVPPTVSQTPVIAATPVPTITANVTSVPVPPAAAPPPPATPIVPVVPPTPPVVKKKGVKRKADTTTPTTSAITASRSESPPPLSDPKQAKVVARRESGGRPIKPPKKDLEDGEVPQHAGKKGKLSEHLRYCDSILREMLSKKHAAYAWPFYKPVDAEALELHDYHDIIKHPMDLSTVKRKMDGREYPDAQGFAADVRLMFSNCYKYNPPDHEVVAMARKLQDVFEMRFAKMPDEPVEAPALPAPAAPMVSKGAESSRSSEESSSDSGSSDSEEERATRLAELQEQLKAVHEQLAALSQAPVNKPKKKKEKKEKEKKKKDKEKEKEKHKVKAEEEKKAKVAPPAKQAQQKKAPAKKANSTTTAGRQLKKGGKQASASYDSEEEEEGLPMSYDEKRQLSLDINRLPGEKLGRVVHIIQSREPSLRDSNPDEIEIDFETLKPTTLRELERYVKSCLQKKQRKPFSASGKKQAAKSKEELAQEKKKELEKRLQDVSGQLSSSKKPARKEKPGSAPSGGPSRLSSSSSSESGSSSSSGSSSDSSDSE
T3 sequence (P40337 whole entry): as the sequence (P40337 whole entry, stated change not applied) above

[19] = target: T4, von Hippel-Lindau disease tumor suppressor/Bromodomain-containing protein 4 (Homo sapiens, UniProt O60885+P40337); assay: Protac activity at VHL/BRD4 in HEK293 cells assessed as degradation of BRD4 incubated for 4 hrs by Western blot analysis; assay type: cell-based
T4 sequence (P40337 whole entry, looked up, other chains not shown): as the sequence (P40337 whole entry, stated change not applied) above

[20] = target: von Hippel-Lindau disease tumor suppressor/Histone deacetylase 3 (Homo sapiens, UniProt O15379+P40337); assay: Protac activity at VHL/HDAC3 in human MDA-MB-468 assessed as degradation of HDAC3 incubated for 14 hrs by Western blot analysis; assay type: cell-based
[21] = test system: NCI-H358; assay: Antiproliferative activity against human NCI-H358 cells assessed as inhibition of cell growth incubated for 5 days by celltiter-glo luminescent cell viability assay; assay type: functional, cell-based; details: NCI-H358, 120 h
[22] = target: Protein cereblon/Cyclin-dependent kinase 4 (Homo sapiens, UniProt P11802+Q96SW2); assay: Protac activity at CRBN/CDK4 in human MDA-MB-231 cells; assay type: cell-based
Sequence of Protein cereblon/Cyclin-dependent kinase 4 (P11802 whole entry): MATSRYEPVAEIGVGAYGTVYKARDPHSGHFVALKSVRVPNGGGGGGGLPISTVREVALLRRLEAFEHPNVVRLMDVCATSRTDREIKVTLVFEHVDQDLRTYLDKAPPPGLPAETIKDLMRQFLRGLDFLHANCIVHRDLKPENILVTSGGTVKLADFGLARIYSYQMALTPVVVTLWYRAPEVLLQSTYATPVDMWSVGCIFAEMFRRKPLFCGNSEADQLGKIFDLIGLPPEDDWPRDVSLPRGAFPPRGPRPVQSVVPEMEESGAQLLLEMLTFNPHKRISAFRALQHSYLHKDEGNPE
Sequence of Protein cereblon/Cyclin-dependent kinase 4 (Q96SW2 whole entry): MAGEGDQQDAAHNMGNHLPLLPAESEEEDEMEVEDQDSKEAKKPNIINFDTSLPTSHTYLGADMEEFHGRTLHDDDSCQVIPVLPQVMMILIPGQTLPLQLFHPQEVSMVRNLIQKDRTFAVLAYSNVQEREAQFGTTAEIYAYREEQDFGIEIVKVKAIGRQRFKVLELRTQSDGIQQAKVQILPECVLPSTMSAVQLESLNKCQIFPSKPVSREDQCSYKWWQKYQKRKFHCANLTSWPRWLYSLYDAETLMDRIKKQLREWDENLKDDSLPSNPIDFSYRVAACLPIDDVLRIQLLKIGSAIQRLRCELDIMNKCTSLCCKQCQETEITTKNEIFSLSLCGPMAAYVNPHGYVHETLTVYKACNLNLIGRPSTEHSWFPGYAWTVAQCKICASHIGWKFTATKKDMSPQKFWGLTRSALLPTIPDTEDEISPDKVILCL

[23] = target: Protein cereblon/Cyclin-dependent kinase 6 (Homo sapiens, UniProt Q00534+Q96SW2); assay: Protac activity at CRBN/CDK6 in human MDA-MB-231 cells; assay type: cell-based
[24] = test system: MCF7; assay: Antiproliferative activity against human MCF7 cells assessed as cell growth inhibition incubated for 6 days with media replacement for every 2 to 3 days by MTT assay; assay type: functional, cell-based
[25] = target: von Hippel-Lindau disease tumor suppressor/Estrogen receptor (Homo sapiens, UniProt P03372+P40337); assay: Protac activity at VHL/ER alpha in human MCF7 cells assessed as degradation of ER alpha incubated for 6 hrs by Western blot analysis; assay type: cell-based
[26] = target: T3, von Hippel-Lindau disease tumor suppressor/Bromodomain-containing protein 3; assay: Protac activity at VHL/BRD3 in human HeLa cells assessed as degradation of BRD3 incubated for 24 hrs by Western blotting analysis; assay type: cell-based
[27] = test system: MV4-11; assay: Antiproliferative activity against human MV4-11 cells incubated for 48 to 72 hrs by celltiter-glo luminescent cell viability assay; assay type: functional, cell-based
[28] = target: T4, von Hippel-Lindau disease tumor suppressor/Bromodomain-containing protein 4; assay: Protac activity at VHL/BRD4 in human HeLa cells assessed as degradation of BRD4 incubated for 24 hrs by Western blotting analysis; assay type: cell-based
[29] = target: T2, von Hippel-Lindau disease tumor suppressor/Bromodomain-containing protein 2; assay: Protac activity at VHL/BRD2 in human HeLa cells assessed as degradation of BRD2 incubated for 24 hrs by Western blotting analysis; assay type: cell-based
[30] = target: Protein cereblon/Bromodomain-containing protein 4 (Homo sapiens, UniProt O60885+Q96SW2); assay: Protac activity at CRBN/BRD4 (unknown origin); assay type: protein assay
[31] = target: T4, von Hippel-Lindau disease tumor suppressor/Bromodomain-containing protein 4; assay: Protac activity at VHL/BRD4 in human HCT-116 cells assessed as degradation of BRD4 incubated for 24 hrs by immunoblot assay; assay type: cell-based
[32] = target: von Hippel-Lindau disease tumor suppressor/Cyclin-dependent kinase 6 (Homo sapiens, UniProt P40337+Q00534); assay: Protac activity at VHL/CDK6 in human MM1.S cells assessed as degradation of CDK6 incubated for 16 hrs by immunoblot assay; assay type: cell-based
Sequence of von Hippel-Lindau disease tumor suppressor/Cyclin-dependent kinase 6 (Q00534 whole entry): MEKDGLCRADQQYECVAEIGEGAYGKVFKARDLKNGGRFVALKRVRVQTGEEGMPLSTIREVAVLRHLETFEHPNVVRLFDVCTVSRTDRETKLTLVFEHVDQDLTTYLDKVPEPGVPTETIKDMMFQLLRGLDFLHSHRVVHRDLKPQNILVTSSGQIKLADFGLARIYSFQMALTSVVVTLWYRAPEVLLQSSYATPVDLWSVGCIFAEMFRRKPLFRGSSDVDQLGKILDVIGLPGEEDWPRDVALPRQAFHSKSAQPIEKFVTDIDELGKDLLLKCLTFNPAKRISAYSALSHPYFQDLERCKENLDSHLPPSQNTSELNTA
Sequence of von Hippel-Lindau disease tumor suppressor/Cyclin-dependent kinase 6 (P40337 whole entry): as the sequence (P40337 whole entry, stated change not applied) above

[33] = target: Protein fem-1 homolog B/Bromodomain-containing protein 4 (Homo sapiens, UniProt O60885+Q9UK73); assay: Protac activity at FEM1B/BRD4 in human HEK293T cells assessed as degradation of BRD4 incubated for 8 hrs by Western blot analysis; assay type: cell-based
[34] = test system: MCF7; assay: Antiproliferative activity against human MCF7 cells assessed as inhibition of cell growth measured after 5 days by PrestoBlue cell viability assay; assay type: functional, cell-based; details: MCF7, 120 h

- IC50 [1]: 43 nM
SMILES: Nc1ccccc1NC(=O)c1ccc(COc2cccc3c2CN(C2CCC(=O)NC2=O)C3=O)cc1 (stereo not given)

SMILES: COc1cc(Cl)c(-c2cc(Cl)ccc2Cl)cc1C(=O)N1CCN(C(=O)/C=C/C(=O)NCCCCCCNc2cccc3c2C(=O)N(C2CCC(=O)NC2=O)C3=O)CC1 (stereo not given)
- EC50 [2]: 1250 nM

- Activity [3]: 82.6%
- IC50 [4]: 1750 nM
SMILES: CC1(C)C(=O)N(c2ccc(C#N)c(C(F)(F)F)c2)C(=S)N1COCCOCCOn1cc(CCCCCC(=O)CC23CC4CC(CC(C4)C2)C3)nn1

SMILES: C=C(F)C(=O)N1CCN(c2nc(O[C@@H]3CCCN3CCCOCCC(=O)N[C@H](C(=O)N3C[C@H](O)C[C@H]3C(=O)NCc3ccc(-c4scnc4C)cc3)C(C)(C)C)nc3c2CCN(c2cccc4cccc(Cl)c24)C3)C[C@H]1CC#N
- EC50 [5]: 250 nM
- EC50 [6]: 250 nM
- EC50 [7]: 250 nM
- EC50 [8]: 250 nM
- EC50 [9]: 250 nM

- EC50 [10]: 1.9 nM
SMILES: O=C(CCCCCCC(=O)N/N=C/c1ccc(OCCCC#Cc2cccc3c2CN(C2CCC(=O)NC2=O)C3=O)cc1)NO (stereo not given)

- EC50 [11]: 39.2 nM
SMILES: Cc1ncsc1-c1ccc(CNC(=O)[C@@H]2C[C@@H](O)CN2C(=O)[C@@H](NC(=O)COCCOCCOCCOc2ccc(-c3ccc4ncnc(Nc5ccc(OCc6cccc(F)c6)c(Cl)c5)c4c3)cc2)C(C)(C)C)cc1

- IC50 [12]: 96 nM
SMILES: O=C1CCC(N2C(=O)c3cccc(NCCOCCOCCOCCN4CCN(c5ccc(-c6ccc7c(c6)C(=O)N(C(C(=O)Nc6nccs6)c6ccccc6)C7)cn5)CC4)c3C2=O)C(=O)N1 (stereo not given)

- IC50 [13]: 297 nM
- IC50 [14]: 246 nM
- IC50 [15]: 18 nM
SMILES: Cc1ncsc1-c1ccc(CNC(=O)[C@@H]2C[C@@H](OC(=O)CCCCn3cc(NC(=O)CC[C@@H](NC(=O)c4ccc(NCc5cnc6nc(N)[nH]c(=O)c6n5)cc4)C(=O)O)nn3)CN2C(=O)[C@@H](NC(=O)COCCCOCCNC(=O)C[C@@H]2N=C(c3ccc(Cl)cc3)c3c(sc(C)c3C)-n3c(C)nnc32)C(C)(C)C)cc1

- EC50 [16]: 1.1 nM
- EC50 [18]: 3.3 nM
- EC50 [19]: 0.7 nM
SMILES: Cc1ncsc1-c1ccc(CNC(=O)[C@H]2C[C@H](O)CN2C(=O)[C@H](NC(=O)COCC(C)(COCCOCCOCCNC(=O)C[C@H]2N=C(c3ccc(Cl)cc3)c3c(sc(C)c3C)-n3c(C)nnc32)COCCOCCOCCNC(=O)C[C@H]2N=C(c3ccc(Cl)cc3)c3c(sc(C)c3C)-n3c(C)nnc32)C(C)(C)C)cc1
- IC50 [17]: 1.1 nM

- EC50 [20]: 42 nM
SMILES: CCCNNC(=O)c1ccc(-c2ccc(NC(=O)CCCCCCC(=O)NC(C(=O)N3C[C@@H](O)C[C@@H]3C(=O)N[C@H](C)c3ccc(-c4scnc4C)cc3)C(C)(C)C)cc2)cc1 (stereo not given in full)

- IC50 [21]: 510 nM
SMILES: C=CC(=O)N1CCN(c2nc(NCCCN3CCN(CCCNc4cccc5c4C(=O)N(C4CCC(=O)NC4=O)C5=O)CC3)nc3cc(Cl)c(-c4cc(O)cc5ccccc45)c(F)c23)CC1 (stereo not given)

- EC50 [22]: 97 nM
SMILES: CN(C)C(=O)c1cn(C2CCCC2)c2cnc(Nc3ccc(N4CCN(c5cn(CCCCCNc6cccc7c6C(=O)N(C6CCC(=O)NC6=O)C7=O)nn5)CC4)cn3)nc12 (stereo not given)

- EC50 [23]: 34.1 nM
- EC50 [22]: 12.9 nM
SMILES: CC(=O)C1=C(O)N(C2CCCC2)c2nc(Nc3ccc(N4CCN(Cc5cn(CCCCCNc6cccc7c6C(=O)N(C6CCC(=O)NC6=O)C7=O)nn5)CC4)cn3)ncc2C1C (stereo not given)

- IC50 [24]: 13.2 nM
- EC50 [25]: 1.1 nM
SMILES: Cc1ncsc1-c1ccc([C@@H](C)NC(=O)[C@H]2C[C@H](O)CN2C(=O)[C@H](NC(=O)CCCCOc2ccc(CCNC(=O)c3ccc(C(=O)c4c(-c5ccc(O)cc5)sc5cc(O)ccc45)cc3)cc2)C(C)(C)C)cc1

- EC50 [26]: > 125 nM
- EC50 [27]: 300 nM
- EC50 [28]: 25 nM
- EC50 [29]: > 125 nM
SMILES: Cc1ncsc1-c1ccc2c(c1)OCCOCCO[C@H](NC(=O)C[C@@H]1N=C(c3ccc(Cl)cc3)c3c(sc(C)c3C)-n3c(C)nnc31)COCCOCCOCC(=O)N[C@H](C(C)(C)C)C(=O)N1C[C@@H](O)C[C@@H]1C(=O)NC2

- EC50 [30]: 0.87 nM
SMILES: Cc1sc2c(c1C)C(c1ccc(Cl)cc1)=N[C@@H](CC(=O)NCCCCCNC(=O)COc1ccc(C3CCC(=O)NC3=O)cc1)c1nnc(C)n1-2 (stereo not given in full)

- EC50 [31]: 23.1 nM
SMILES: COc1cc(C(=O)NCCOCCOCCOCCNC(=O)C[C@@H]2N=C(c3ccc(Cl)cc3)c3c(sc(C)c3C)-n3c(C)nnc32)ccc1NC(=O)[C@@H]1N[C@@H](CC(C)(C)C)[C@](C#N)(c2ccc(Cl)cc2F)[C@H]1c1cccc(Cl)c1F

- EC50 [32]: 5.1 nM
SMILES: CC(=O)C1=C(O)N(C2CCCC2)c2nc(Nc3ccc(N4CCN(CCOCCOCCOc5cc(-c6scnc6C)ccc5CNC(=O)[C@@H]5C[C@@H](O)CN5C(=O)C(NC(=O)C5(F)CC5)C(C)(C)C)CC4)cn3)ncc2C1C (stereo not given in full)

- EC50 [33]: 250 nM
SMILES: C#CCCN(C(=O)CCl)c1ccc2c(c1)OCCN2CC(=O)NCCCCNC(=O)C[C@@H]1N=C(c2ccc(Cl)cc2)c2c(sc(C)c2C)-n2c(C)nnc21

- IC50 [34]: 0.8 nM
SMILES: CCN(CCCCCCCC(=O)NC(C(=O)N1C[C@@H](O)C[C@@H]1C(=O)N[C@H](C)c1ccc(-c2scnc2C)cc1)C(C)(C)C)CCOc1ccc(C(=O)c2c(-c3ccc(O)cc3)sc3cc(O)ccc23)cc1 (stereo not given in full)
